Series [1] has as its system Mus musculus. Description: Neurotoxicity in Carworth farms No.1 albino mouse assessed as neurological impairment at 30 mg/kg, ip measured after 4 hrs. Type of series: toxicity, organism-based. On the set-up: dose 30 mg/kg, route intraperitoneal. To be noted: in vivo.
For series [2], the system named is Mus musculus. Briefly: Neurotoxicity in Carworth farms No.1 albino mouse assessed as neurological impairment at 30 mg/kg, ip measured after 0.5 hrs. Conditions: in vivo. Set-up: dose 30 mg/kg, route intraperitoneal. Type of series: toxicity, organism-based.
Series [3] concerns Mus musculus. Description: Neurotoxicity in Carworth farms No.1 albino mouse assessed as neurological impairment at 100 mg/kg, ip measured after 0.5 hrs. Type of series: toxicity, organism-based. Set-up: dose 100 mg/kg, route intraperitoneal. Conditions: in vivo.
Series [4] relates to Mus musculus. Briefly: Neurotoxicity in Carworth farms No.1 albino mouse assessed as neurological impairment at 300 mg/kg, ip measured after 4 hrs. To be noted: in vivo. Type of series: toxicity, organism-based. Set-up: dose 300 mg/kg, route intraperitoneal.
For series [5], the system named is Mus musculus. Description: Neurotoxicity in Carworth farms No.1 albino mouse assessed as neurological impairment at 100 mg/kg, ip measured after 4 hrs. The class given is toxicity, organism-based. On the set-up: dose 100 mg/kg, route intraperitoneal. Conditions: in vivo.
The subject of series [6] is Mus musculus. Briefly: Neurotoxicity in Carworth farms No.1 albino mouse assessed as neurological impairment at 300 mg/kg, ip measured after 0.5 hrs. The class given is toxicity, organism-based. Set-up: dose 300 mg/kg, route intraperitoneal. To be noted: in vivo.
The test system of series [7] is Mus musculus. Description: Neurotoxicity in Carworth farms No.1 albino mouse assessed as neurological impairment at 100 mg/kg, ip measured after 2 hr. Type of series: toxicity, organism-based. Set-up: dose 100 mg/kg, route intraperitoneal. To be noted: in vivo.
Series [8] concerns Mus musculus. Briefly: Anticonvulsant activity in Carworth farms No.1 albino mouse assessed as protection against maximum electroshock at 100 mg/kg, ip measured after 4 hrs. The class given is functional, organism-based. On the set-up: dose 100 mg/kg.
Series [9] has as its system Mus musculus. Description: Anticonvulsant activity in Carworth farms No.1 albino mouse assessed as protection against maximum electroshock at 300 mg/kg, ip measured after 0.5 hrs. Type of series: functional, organism-based. On the set-up: dose 300 mg/kg.
In series [10] the test system is Mus musculus. Description: Anticonvulsant activity in Carworth farms No.1 albino mouse assessed as protection against subcutaneous metrazole-induced seizures at 100 mg/kg, ip measured after 4 hrs. The class given is functional, organism-based. On the set-up: dose 100 mg/kg.
Series [11] relates to Mus musculus. Briefly: Anticonvulsant activity in Carworth farms No.1 albino mouse assessed as protection against 6 Hz electric current-induced seizure at 100 mg/kg, ip measured after 0.25 hrs. Set-up: dose 100 mg/kg. Type of series: functional, organism-based.
The subject of series [12] is Mus musculus. Briefly: Anticonvulsant activity in Carworth farms No.1 albino mouse assessed as protection against maximum electroshock at 30 mg/kg, ip measured after 0.5 hrs. The class given is functional, organism-based. Set-up: dose 30 mg/kg.
Series [13] has as its system Mus musculus. Description: Anticonvulsant activity in Carworth farms No.1 albino mouse assessed as protection against subcutaneous metrazole-induced seizures at 30 mg/kg, ip measured after 0.5 hrs. Type of series: functional, organism-based. On the set-up: dose 30 mg/kg.
Series [14] relates to Mus musculus. Description: Anticonvulsant activity in Carworth farms No.1 albino mouse assessed as protection against 6 Hz electric current-induced seizure at 100 mg/kg, ip measured after 0.5 hrs. On the set-up: dose 100 mg/kg. The class given is functional, organism-based.
The test system of series [15] is Mus musculus. Briefly: Anticonvulsant activity in Carworth farms No.1 albino mouse assessed as protection against maximum electroshock at 30 mg/kg, ip measured after 4 hrs. The class given is functional, organism-based. Set-up: dose 30 mg/kg.
The subject of series [16] is Mus musculus. Briefly: Anticonvulsant activity in Carworth farms No.1 albino mouse assessed as protection against subcutaneous metrazole-induced seizures at 100 mg/kg, ip measured after 0.5 hrs. Type of series: functional, organism-based. Set-up: dose 100 mg/kg.
Series [17] concerns Mus musculus. Briefly: Anticonvulsant activity in Carworth farms No.1 albino mouse assessed as protection against 6 Hz electric current-induced seizure at 100 mg/kg, ip measured after 2 hrs. Set-up: dose 100 mg/kg. Type of series: functional, organism-based.
Series [18] concerns Mus musculus. Briefly: Anticonvulsant activity in Carworth farms No.1 albino mouse assessed as protection against maximum electroshock at 100 mg/kg, ip measured after 0.5 hrs. Type of series: functional, organism-based. On the set-up: dose 100 mg/kg.
The subject of series [19] is Mus musculus. Briefly: Anticonvulsant activity in Carworth farms No.1 albino mouse assessed as protection against 6 Hz electric current-induced seizure at 100 mg/kg, ip measured after 1 hrs. The class given is functional, organism-based. On the set-up: dose 100 mg/kg.
Series [20] deals with Mus musculus. Briefly: Anticonvulsant activity in Carworth farms No.1 albino mouse assessed as protection against subcutaneous metrazole-induced seizures at 300 mg/kg, ip measured after 0.5 hrs. Type of series: functional, organism-based. On the set-up: dose 300 mg/kg.
Series [21] deals with Mus musculus. Briefly: Anticonvulsant activity in Carworth farms No.1 albino mouse assessed as protection against subcutaneous metrazole-induced seizures at 30 mg/kg, ip measured after 4 hrs. Type of series: functional, organism-based. Set-up: dose 30 mg/kg.
Series [22] relates to Mus musculus. Briefly: Anticonvulsant activity in Carworth farms No.1 albino mouse assessed as protection against subcutaneous metrazole-induced seizures at 300 mg/kg, ip measured after 4 hrs. Type of series: functional, organism-based. Set-up: dose 300 mg/kg.
Series [23] concerns Mus musculus. Description: Neurotoxicity in Carworth farms No.1 albino mouse assessed as neurological impairment at 100 mg/kg, ip measured after 0.25 hrs. The class given is toxicity, organism-based. On the set-up: dose 100 mg/kg, route intraperitoneal. Conditions: in vivo.
Series [24] relates to Mus musculus. Briefly: Neurotoxicity in Carworth farms No.1 albino mouse assessed as neurological impairment at 100 mg/kg, ip measured after 1 hr. The class given is toxicity, organism-based. On the set-up: dose 100 mg/kg, route intraperitoneal. To be noted: in vivo.
For series [25], the system named is Mus musculus. Briefly: Anticonvulsant activity in Carworth farms No.1 albino mouse assessed as protection against 6 Hz electric current-induced seizure at 100 mg/kg, ip measured after 4 hrs. The class given is functional, organism-based. On the set-up: dose 100 mg/kg.
Series [26] has as its system Mus musculus. Description: Anticonvulsant activity in Carworth farms No.1 albino mouse assessed as protection against maximum electroshock at 300 mg/kg, ip measured after 4 hrs. On the set-up: dose 300 mg/kg. Type of series: functional, organism-based.

Calls of active or inactive are those of the source. No cut-off for these calls is given here.

Consider `O=C1[C@H](c2ccccc2)N2CCCC[C@H]2C(=O)N1CCc1ccccc1` [listing 1 of 2 here], for which the Activity entry in series [1], in series [2], in [3], in [4], in [5] and in series [6] was “Non-toxic” each time.

Turning to `O=C1[C@H]2CCCCN2[C@@H](c2ccccc2)C(=O)N1Cc1ccccc1`, the Activity entry in [7], in series [1], in series [2], in series [3], in [4] and in series [5] was “Non-toxic” throughout. In addition, the Activity entry in [23], in series [24] and in series [6] was “Non-toxic” each time. Also, the outcome in [8], in series [9], in series [10], in series [11], in series [12] and in series [13] was inactive. In addition, the outcome in series [14], in series [15], in [16], in series [17], in series [18] and in series [19] was inactive. Further, the outcome in [20], in series [21], in series [22], in series [25] and in series [26] was inactive.

For `O=C1[C@H](c2ccccc2)N2CCCC[C@H]2C(=O)N1CCc1ccccc1` [listing 2 of 2 here], the result in series [8], in series [9], in series [10], in series [12], in series [13] and in series [15] was inactive. In addition, the result in series [16], in [17], in [18], in [19], in series [20] and in series [21] was inactive. For the same molecule, the outcome in [22], in [25] and in series [26] was inactive. Besides, the outcome in series [11] and in series [14] was Active.

On to `Cl.O=C1[C@H]2CCCCN2[C@H](c2ccccc2)C(=O)N1Cc1ccccc1`, for which the result in [8], in series [10], in series [12], in series [13], in series [15] and in [16] was inactive. The outcome in [18], in [20], in series [21] and in series [22] was inactive. The outcome in [9] and in series [26] was Active. Moreover, the Activity entry in series [1] is on record as “Non-toxic”; in series [2], “Non-toxic”; in series [3], “Non-toxic”; in series [4], “Non-toxic”; in [5], “Non-toxic”; in [6], “Toxic”.

`O=C1[C@H]2CCCCN2[C@H](c2ccccc2)C(=O)N1CCc1ccccc1` [listing 1 of 2 here]: the Activity entry in [7], in series [1], in [2], in series [3], in [4] and in [5] was “Non-toxic” throughout. Further, the Activity result in [23], in series [24] and in series [6] was “Non-toxic” throughout.

`O=C1CN2CCCC[C@@H]2C(=O)N1`: the Activity result in series [7], in series [1], in series [2], in series [3], in series [4] and in series [5] was “Non-toxic” in each case. Further, the Activity entry in series [23], in [24] and in [6] was “Non-toxic” in each case. The outcome in series [8], in series [9], in [10], in series [11], in series [12] and in series [13] was inactive. Further, the result in [15], in [16], in series [17], in series [18], in series [20] and in [21] was inactive. Moreover, the result in [22], in series [25] and in [26] was inactive. For the same molecule, the outcome in series [14] and in [19] was Active.

With `O=C1[C@H]2CCCCN2[C@H](c2ccccc2)C(=O)N1CCc1ccccc1` [listing 2 of 2 here], the result in series [8], in series [9], in series [10], in series [12], in series [13] and in [15] was inactive. Besides, the outcome in series [16], in [18], in series [20], in series [21], in [22] and in series [25] was inactive. Besides, the result in series [26] was inactive.

`Cl.O=C1[C@H](c2ccccc2)N2CCCC[C@H]2C(=O)N1CCc1ccccc1`: the Activity entry in series [7], in [1], in series [2], in [3], in series [4] and in series [5] was “Non-toxic” each time. Further, the Activity result in series [23], in series [24] and in [6] was “Non-toxic” throughout.

Source of the values: ChEMBL document CHEMBL1944578, “Synthesis and anticonvulsant activity of novel 2,6-diketopiperazine derivatives. Part 2: Perhydropyrido[1,2-a]pyrazines” (Eur J Med Chem, 2012).
